In US10385048B2, “Pesticidally active polycyclic derivatives with sulfur containing substituents” (Syngenta Participations AG, priority 2014, dated 2019):

Experiments:
Type in all cases: in vivo
[1] = tested on: Bemisia tabaci; assay: Bemisia tabaci (cotton white fly) feeding/contact activity, cotton leaf discs; settings: foliar, 144 h, application rate 200 ppm, adult white flies, 6 days after incubation
Description: Example B1: Bemisia tabaci (Cotton White Fly): Feeding/Contact Activity
Cotton leaf discs were placed on agar in 24-well microtiter plates and sprayed with aqueous test solutions prepared from 10′000 ppm DMSO stock solutions. After drying the leaf discs were infested with adult white flies. The samples were checked for mortality 6 days after incubation.

[2] = tested on: Diabrotica Balteata; assay: Diabrotica balteata (corn root worm), maize sprouts, L2 larvae; settings: 96 h, application rate 200 ppm, 4 days after infestation, read-out: effect in at least one of the two categories (mortality or growth inhibition)
Description: Example B2: Diabrotica Balteata (Corn Root Worm)
Maize sprouts placed onto an agar layer in 24-well microtiter plates were treated with aqueous test solutions prepared from 10′000 ppm DMSO stock solutions by spraying. After drying, the plates were infested with L2 larvae (6 to 10 per well). The samples were assessed for mortality and growth inhibition in comparison to untreated samples 4 days after infestation.

[3] = tested on: Euschistus heros; assay: Euschistus heros (neotropical brown stink bug), soybean leaves, N2 nymphs; settings: 120 h, application rate 200 ppm, 5 days after infestation, read-out: effect in at least one of the two categories (mortality or growth inhibition)
Description: Example B3: Euschistus heros (Neotropical Brown Stink Bug)
Soybean leaves on agar in 24-well microtiter plates were sprayed with aqueous test solutions prepared from 10′000 ppm DMSO stock solutions. After drying the leaves were infested with N2 nymphs. The samples were assessed for mortality and growth inhibition in comparison to untreated samples 5 days after infestation.

[4] = tested on: Frankliniella occidentalis; assay: Frankliniella occidentalis (western flower thrips) feeding/contact activity, sunflower leaf discs; settings: foliar, 168 h, application rate 200 ppm, population of mixed ages, 7 days after infestation
Description: Example B4: Frankliniella occidentalis (Western Flower Thrips): Feeding/Contact Activity
(§1) Sunflower leaf discs were placed on agar in 24-well microtiter plates and sprayed with aqueous test solutions prepared from 10′000 DMSO stock solutions. After drying the leaf discs were infested with a Frankliniella population of mixed ages. The samples were assessed for mortality 7 days after infestation.

[5] = tested on: Myzus persicae; assay: Myzus persicae (green peach aphid) feeding/contact activity, sunflower leaf discs; settings: foliar, 144 h, application rate 200 ppm, 6 days after infestation
Description: Example B5: Myzus persicae (Green Peach Aphid): Feeding/Contact Activity
Sunflower leaf discs were placed onto agar in a 24-well microtiter plate and sprayed with aqueous test solutions prepared from 10′000 ppm DMSO stock solutions. After drying, the leaf discs were infested with an aphid population of mixed ages. The samples were assessed for mortality 6 days after infestation.

[6] = tested on: Myzus persicae; assay: Myzus persicae (green peach aphid) systemic activity, pea seedling roots; settings: 144 h, test rate 24 ppm, 6 days after placing seedlings into test solutions
[7] = tested on: Plutella xylostella; assay: Plutella xylostella (diamond back moth), artificial diet, L2 larvae; settings: 120 h, application rate 200 ppm, 5 days after infestation, read-out: effect in at least one of the two categories (mortality or growth inhibition)
Description: Example B7: Plutella xylostella (Diamond Back Moth)
24-well microtiter plates with artificial diet were treated with aqueous test solutions prepared from 10′000 ppm DMSO stock solutions by pipetting. After drying, the plates were infested with L2 larvae (10 to 15 per well). The samples were assessed for mortality and growth inhibition in comparison to untreated samples 5 days after infestation.

[8] = tested on: Spodoptera littoralis; assay: Spodoptera littoralis (Egyptian cotton leaf worm), cotton leaf discs, L1 larvae; settings: foliar, 72 h, application rate 200 ppm, L1 larvae on cotton leaf discs, 3 days after infestation
Description: Example B8: Spodoptera littoralis (Egyptian Cotton Leaf Worm)
Cotton leaf discs were placed onto agar in 24-well microtiter plates and sprayed with aqueous test solutions prepared from 10′000 ppm DMSO stock solutions. After drying the leaf discs were infested with five L1 larvae. The samples were assessed for mortality, anti-feeding effect, and growth inhibition in comparison to untreated samples 3 days after infestation. Control of Spodoptera littoralis by a test sample is given when at least one of the categories mortality, anti-feedant effect, and growth inhibition is higher than the untreated sample.

[9] = tested on: Spodoptera littoralis; assay: Spodoptera littoralis (Egyptian cotton leaf worm), uptake by lettuce roots from agar, eggs; settings: 144 h, test rate 12.5 ppm, lettuce root uptake, 6 days after infestation, read-out: effect in at least one of the three categories (mortality, anti-feeding, or growth inhibition)
Source text: Example B9: Spodoptera littoralis (Egyptian Cotton Leaf Worm)
Test compounds were applied by pipette from 10′000 ppm DMSO stock solutions into 24-well plates and mixed with agar. Lettuce seeds were placed onto the agar and the multi well plate was closed by another plate which contained also agar. After 7 days the compound was absorbed by the roots and the lettuce grew into the lid plate. The lettuce leaves were then cut off into the lid plate. Spodoptera eggs were pipetted through a plastic stencil onto a humid gel blotting paper and the lid plate was closed with it. The samples were assessed for mortality, anti-feedant effect and growth inhibition in comparison to untreated samples 6 days after infestation.

[10] = tested on: Tetranychus urticae; assay: Tetranychus urticae (two-spotted spider mite) feeding/contact activity, bean leaf discs; settings: foliar, 192 h, application rate 200 ppm, mixed population (mobile stages), 8 days after infestation
Description: Example B10: Tetranychus urticae (Two-Spotted Spider Mite): Feeding/Contact Activity
Bean leaf discs on agar in 24-well microtiter plates were sprayed with aqueous test solutions prepared from 10′000 ppm DMSO stock solutions. After drying the leaf discs were infested with a mite population of mixed ages. The samples were assessed for mortality on mixed population (mobile stages) 8 days after infestation.

[11] = tested on: Thrips tabaci; assay: Thrips tabaci (onion thrips) feeding/contact activity, sunflower leaf discs; settings: foliar, 144 h, application rate 200 ppm, population of mixed ages, 6 days after infestation
Description: Example B11: Thrips tabaci (Onion Thrips) Feeding/Contact Activity
as §1, with “10′000 ppm” for “10′000”, “thrips” for “Frankliniella”, “6” for “7”

[12] = tested on: Aedes aegypti; assay: Aedes aegypti (yellow fever mosquito), dry deposit in 12 well plates, adult females; settings: application rate 200 ppm in ethanol, after 48 h and/or 24 h
Description: Example B12: Aedes aegypti (Yellow Fever Mosquito)
(§2) Test solutions, at an application rate of 200 ppm in ethanol, were applied to 12 well tissue culture plates. Once the deposits were dry, five, two to five day old adult female Aedes aegypti were added to each well, and sustained with a 10% sucrose solution in a cotton wool plug. Assessment of knockdown was made one hour after introduction, and mortality was assessed at 24 and 48 hours after introduction.

[13] = tested on: Anopheles stephensi; assay: Anopheles stephensi (Indian malaria mosquito), dry deposit in 12 well plates, adult females; settings: application rate 200 ppm in ethanol, after 48 h and/or 24 h
Description: Example B13: Anopheles stephensi (Indian Malaria Mosquito)
as §2, with “Anopheles stephensi” for “Aedes aegypti”

CCS(=O)(=O)c1cc(C(F)(F)F)cnc1-c1nc2cc(S(=O)(=O)C(F)(F)F)ncc2n1C [Compound P8, 2-[3-ethylsulfonyl-5-(trifluoromethyl)-2-pyridyl]-3-methyl-6-(trifluoromethylsulfonyl) imidazo[4,5-c]pyridine]
≥ 80%: mortality at 200 ppm [1] | percent effect (mortality or growth inhibition) at 200 ppm [2] | percent effect (mortality or growth inhibition) at 200 ppm [3] | mortality at 200 ppm [4] | mortality at 200 ppm [5] | mortality at 24 ppm [6] | percent effect (mortality or growth inhibition) at 200 ppm [7] | percent control (mortality, anti-feedant effect or growth inhibition) at 200 ppm [8] | percent effect (mortality, anti-feeding or growth inhibition) at 12.5 ppm [9] | mortality at 200 ppm [10] | mortality at 200 ppm [11] | pest or weed control at 200 ppm [12] | pest or weed control at 200 ppm [13]

CCS(=O)(=O)c1cc(C(F)(F)F)cnc1-c1nc2cc(SC(F)(F)F)ncc2n1C [Compound P10, 2-[3-ethylsulfonyl-5-(trifluoromethyl)-2-pyridyl]-3-methyl-6-(trifluoromethylsulfanyl)imidazo[4,5-c]pyridine]
≥ 80%: mortality at 200 ppm [1] | percent effect (mortality or growth inhibition) at 200 ppm [2] | percent effect (mortality or growth inhibition) at 200 ppm [3] | mortality at 200 ppm [4] | mortality at 200 ppm [5] | mortality at 24 ppm [6] | percent effect (mortality or growth inhibition) at 200 ppm [7] | percent control (mortality, anti-feedant effect or growth inhibition) at 200 ppm [8] | percent effect (mortality, anti-feeding or growth inhibition) at 12.5 ppm [9] | mortality at 200 ppm [11] | pest or weed control at 200 ppm [12] | pest or weed control at 200 ppm [13]
